In PubChem BioAssay (NCI):
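96-well plates; 48 h exposure; 5 concentrations. Endpoints by linear interpolation between flanking doses. Not reached: highest tested concentration assigned. GI50: concentration for 50% inhibition of growth. TGI denotes the concentration required for complete inhibition of growth.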 *1 amine or outer side, *2 acyl side, *3 side chain or, on linkers, in order; H or OH if unused. Where a SMILES comes first, the peptide text is derived from it. Bridges are numbered along the chain shown (N, C = ends). [ ]: non-standard residue; d: D form. The star is where a group is joined. Phe(3,5-F2) = N[C@@H](Cc1cc(F)cc(F)c1)C(=O)O; Pro(4R-Me) = C[C@H]1CN[C@H](C(=O)O)C1; aThr = C[C@H](O)[C@H](N)C(=O)O; Pip = O=C(O)[C@@H]1CCCCN1; X10 = Fc1cc(C2CC2)ccc1N*; CO = O=C([*:1])[*:2]

Key:
Experiment in all cases: DTP human tumour cell line panel, 48 h
786-0 renal = test system: 786-0 renal
A498 renal = test system: A498 renal
A549 NSCLC = test system: A549 NSCLC
ACHN renal = test system: ACHN renal
BT-549 breast = test system: BT-549 breast
CAKI-1 renal = test system: CAKI-1 renal
CCRF-CEM leukemia = test system: CCRF-CEM leukemia
COLO 205 colon = test system: COLO 205 colon
DU-145 prostate = test system: DU-145 prostate
EKVX NSCLC = test system: EKVX NSCLC
HCC-2998 colon = test system: HCC-2998 colon
HCT-116 colon = test system: HCT-116 colon
HCT-15 colon = test system: HCT-15 colon
HL-60(TB) leukemia = test system: HL-60(TB) leukemia
HOP-62 NSCLC = test system: HOP-62 NSCLC
HOP-92 NSCLC = test system: HOP-92 NSCLC
HS 578T breast = test system: HS 578T breast
HT29 colon = test system: HT29 colon
IGROV1 ovarian = test system: IGROV1 ovarian
K-562 leukemia = test system: K-562 leukemia
KM12 colon = test system: KM12 colon
LOX IMVI melanoma = test system: LOX IMVI melanoma
M14 melanoma = test system: M14 melanoma
MALME-3M melanoma = test system: MALME-3M melanoma
MCF7 breast = test system: MCF7 breast
MDA-MB-231 breast = test system: MDA-MB-231 breast
MDA-MB-435 = test system: MDA-MB-435
MOLT-4 leukemia = test system: MOLT-4 leukemia
NCI-H226 lung = test system: NCI-H226 lung
NCI-H23 lung = test system: NCI-H23 lung
NCI-H460 lung = test system: NCI-H460 lung
NCI-H522 lung = test system: NCI-H522 lung
NCI/ADR-RES ovarian = test system: NCI/ADR-RES ovarian
OVCAR-3 ovarian = test system: OVCAR-3 ovarian
OVCAR-4 ovarian = test system: OVCAR-4 ovarian
OVCAR-5 ovarian = test system: OVCAR-5 ovarian
OVCAR-8 ovarian = test system: OVCAR-8 ovarian
PC-3 prostate = test system: PC-3 prostate
RPMI-8226 leukemia = test system: RPMI-8226 leukemia
RXF 393 renal = test system: RXF 393 renal
SF-268 CNS = test system: SF-268 CNS
SF-295 CNS = test system: SF-295 CNS
SF-539 CNS = test system: SF-539 CNS
SK-MEL-2 melanoma = test system: SK-MEL-2 melanoma
SK-MEL-28 melanoma = test system: SK-MEL-28 melanoma
SK-MEL-5 melanoma = test system: SK-MEL-5 melanoma
SK-OV-3 ovarian = test system: SK-OV-3 ovarian
SN12C renal = test system: SN12C renal
SNB-19 CNS = test system: SNB-19 CNS
SNB-75 CNS = test system: SNB-75 CNS
SR leukemia = test system: SR leukemia
SW-620 colon = test system: SW-620 colon
T-47D breast = test system: T-47D breast
TK-10 renal = test system: TK-10 renal
U251 CNS = test system: U251 CNS
UACC-257 melanoma = test system: UACC-257 melanoma
UACC-62 melanoma = test system: UACC-62 melanoma
UO-31 renal = test system: UO-31 renal

## O=C(Nc1ccc(-n2ccc3c(NC(=O)c4ccccc4)nccc32)cc1)c1ccc(Cl)c(C(F)(F)F)c1
786-0 renal
  GI50: 606 nM
  TGI: 9930 nM
A498 renal
  GI50: 6100 nM
  TGI: 33100 nM
A549 NSCLC
  GI50: 318 nM
  TGI: 8450 nM
ACHN renal
  GI50: 487 nM
  TGI: 15400 nM
BT-549 breast
  GI50: 6500 nM
  TGI: > 50000 nM
CAKI-1 renal
  GI50: 305 nM
  TGI: 11800 nM
CCRF-CEM leukemia
  GI50: 128 nM
  TGI: 2170 nM
COLO 205 colon
  GI50: 1830 nM
  TGI: 11000 nM
DU-145 prostate
  GI50: 2120 nM
  TGI: 10700 nM
EKVX NSCLC
  GI50: 9590 nM
  TGI: > 50000 nM
HCC-2998 colon
  GI50: 1600 nM
  TGI: 10400 nM
HCT-116 colon
  GI50: 82.4 nM
  TGI: 989 nM
HCT-15 colon
  GI50: 27.5 nM
  TGI: 2830 nM
HL-60(TB) leukemia
  GI50: 687 nM
  TGI: 9780 nM
HOP-62 NSCLC
  GI50: 3400 nM
  TGI: 13200 nM
HOP-92 NSCLC
  GI50: 3420 nM
  TGI: > 42200 nM
HS 578T breast
  GI50: 4880 nM
  TGI: 20000 nM
HT29 colon
  GI50: 183 nM
  TGI: 6310 nM
IGROV1 ovarian
  GI50: 1550 nM
  TGI: 15300 nM
K-562 leukemia
  GI50: 213 nM
  TGI: > 17200 nM
KM12 colon
  GI50: 351 nM
  TGI: 6260 nM
LOX IMVI melanoma
  GI50: 112 nM
  TGI: 3290 nM
M14 melanoma
  GI50: 1920 nM
  TGI: 10700 nM
MALME-3M melanoma
  GI50: 4130 nM
  TGI: 14700 nM
MCF7 breast
  GI50: 288 nM
  TGI: 1240 nM
MDA-MB-231 breast
  GI50: 5090 nM
  TGI: 15000 nM
MDA-MB-435
  GI50: 674 nM
  TGI: 6520 nM
MOLT-4 leukemia
  GI50: 351 nM
  TGI: > 20700 nM
NCI-H226 lung
  GI50: 6170 nM
  TGI: > 50000 nM
NCI-H23 lung
  GI50: 7160 nM
  TGI: > 32900 nM
NCI-H460 lung
  GI50: 44.2 nM
  TGI: 1200 nM
NCI-H522 lung
  GI50: 811 nM
  TGI: 9590 nM
NCI/ADR-RES ovarian
  GI50: 960 nM
  TGI: 15200 nM
OVCAR-3 ovarian
  GI50: 1350 nM
  TGI: 10000 nM
OVCAR-4 ovarian
  GI50: 1610 nM
  TGI: 8550 nM
OVCAR-5 ovarian
  GI50: 3840 nM
  TGI: 27300 nM
OVCAR-8 ovarian
  GI50: 528 nM
  TGI: 15900 nM
PC-3 prostate
  GI50: 2560 nM
  TGI: 24800 nM
RPMI-8226 leukemia
  GI50: 231 nM
  TGI: 5540 nM
RXF 393 renal
  GI50: 1010 nM
  TGI: 9640 nM
SF-268 CNS
  GI50: 1080 nM
  TGI: 11900 nM
SF-295 CNS
  GI50: 293 nM
  TGI: 10000 nM
SF-539 CNS
  GI50: 273 nM
  TGI: 14400 nM
SK-MEL-2 melanoma
  GI50: 6160 nM
  TGI: 31600 nM
SK-MEL-28 melanoma
  GI50: 4990 nM
  TGI: 14100 nM
SK-MEL-5 melanoma
  GI50: 132 nM
  TGI: 8670 nM
SK-OV-3 ovarian
  GI50: 1180 nM
  TGI: 20700 nM
SN12C renal
  GI50: 2250 nM
  TGI: 18300 nM
SNB-19 CNS
  GI50: 1180 nM
  TGI: 13100 nM
SNB-75 CNS
  GI50: 625 nM
  TGI: 16500 nM
SR leukemia
  GI50: 54.5 nM
  TGI: > 12700 nM
SW-620 colon
  GI50: 335 nM
  TGI: 1440 nM
T-47D breast
  GI50: 6200 nM
  TGI: 20400 nM
TK-10 renal
  GI50: 5380 nM
  TGI: 13500 nM
U251 CNS
  GI50: 95 nM
  TGI: 5300 nM
UACC-257 melanoma
  GI50: 6730 nM
  TGI: 27200 nM
UACC-62 melanoma
  GI50: 576 nM
  TGI: 9790 nM
UO-31 renal
  GI50: 2860 nM
  TGI: > 50000 nM

## C[C@@H]1C[C@H]2C(=O)O[C@@H](C)[C@H](NC(=O)[C@H](Cc3cc(F)cc(F)c3)NC(=O)Nc3ccc(C4CC4)cc3F)C(=O)N3CCC[C@H]3C(=O)N3CCCC[C@H]3C(=O)N[C@@H](C)C(=O)N2C1 ({X10-CO}-[Phe(3,5-F2)][aThr]P[Pip]A[Pro(4R-Me)]; ester 2-C)
786-0 renal
  GI50: 81.7 nM
  TGI: > 38400 nM
A498 renal
  GI50: 20.3 nM
  TGI: 363 nM
A549 NSCLC
  GI50: 50.7 nM
  TGI: > 100000 nM
ACHN renal
  GI50: 98.4 nM
  TGI: 8120 nM
BT-549 breast
  GI50: 58.8 nM
  TGI: > 22400 nM
CAKI-1 renal
  GI50: 40 nM
  TGI: 10300 nM
CCRF-CEM leukemia
  GI50: 52.2 nM
  TGI: > 100000 nM
COLO 205 colon
  GI50: 35.1 nM
  TGI: 1190 nM
DU-145 prostate
  GI50: 53 nM
  TGI: > 56900 nM
EKVX NSCLC
  GI50: 61.3 nM
  TGI: > 95600 nM
HCC-2998 colon
  GI50: 40.2 nM
  TGI: 1780 nM
HCT-116 colon
  GI50: 41.4 nM
  TGI: 2160 nM
HCT-15 colon
  GI50: 79.6 nM
  TGI: 5280 nM
HL-60(TB) leukemia
  GI50: 38.7 nM
  TGI: 1820 nM
HOP-62 NSCLC
  GI50: 54.2 nM
  TGI: > 48200 nM
HOP-92 NSCLC
  GI50: 45.2 nM
  TGI: 4760 nM
HS 578T breast
  GI50: 40.9 nM
  TGI: 3940 nM
HT29 colon
  GI50: 49.6 nM
  TGI: 7950 nM
IGROV1 ovarian
  GI50: 149 nM
  TGI: 18500 nM
K-562 leukemia
  GI50: 34.6 nM
  TGI: > 52300 nM
KM12 colon
  GI50: 90.9 nM
  TGI: 10300 nM
LOX IMVI melanoma
  GI50: 66.8 nM
  TGI: 11500 nM
M14 melanoma
  GI50: 43.6 nM
  TGI: 2410 nM
MALME-3M melanoma
  GI50: 63.5 nM
  TGI: 5900 nM
MCF7 breast
  GI50: 38.1 nM
  TGI: 13900 nM
MDA-MB-231 breast
  GI50: 40.2 nM
  TGI: 1300 nM
MDA-MB-435
  GI50: 42.3 nM
  TGI: 2710 nM
MOLT-4 leukemia
  GI50: 205 nM
  TGI: > 42700 nM
NCI-H226 lung
  GI50: 52.4 nM
  TGI: 4350 nM
NCI-H23 lung
  GI50: 52.2 nM
  TGI: 35300 nM
NCI-H460 lung
  GI50: 39.1 nM
  TGI: 4550 nM
NCI-H522 lung
  GI50: 44.1 nM
NCI/ADR-RES ovarian
  GI50: 354 nM
  TGI: 45600 nM
OVCAR-3 ovarian
  GI50: 43 nM
  TGI: 3270 nM
OVCAR-4 ovarian
  GI50: 33 nM
  TGI: 3840 nM
OVCAR-5 ovarian
  GI50: 57.5 nM
  TGI: 3390 nM
OVCAR-8 ovarian
  GI50: 38.3 nM
  TGI: > 100000 nM
PC-3 prostate
  GI50: 35.5 nM
  TGI: > 36000 nM
RPMI-8226 leukemia
  GI50: 28.7 nM
  TGI: 878 nM
RXF 393 renal
  GI50: 233 nM
  TGI: 3990 nM
SF-268 CNS
  GI50: 49 nM
  TGI: > 46900 nM
SF-295 CNS
  GI50: 43.8 nM
  TGI: 1570 nM
SF-539 CNS
  GI50: 75.2 nM
  TGI: 3560 nM
SK-MEL-2 melanoma
  GI50: 54.9 nM
  TGI: 3830 nM
SK-MEL-28 melanoma
  GI50: 78.1 nM
  TGI: 4990 nM
SK-MEL-5 melanoma
  GI50: 46.1 nM
  TGI: 1240 nM
SK-OV-3 ovarian
  GI50: 50.4 nM
  TGI: 16000 nM
SN12C renal
  GI50: 40.1 nM
  TGI: 42700 nM
SNB-19 CNS
  GI50: 40.4 nM
  TGI: > 46900 nM
SNB-75 CNS
  GI50: 48.5 nM
  TGI: 49900 nM
SR leukemia
  GI50: 63.3 nM
  TGI: 5670 nM
SW-620 colon
  GI50: 53.4 nM
  TGI: > 100000 nM
T-47D breast
  GI50: 44.8 nM
  TGI: > 22100 nM
TK-10 renal
  GI50: 343 nM
  TGI: > 35100 nM
U251 CNS
  GI50: 47.9 nM
  TGI: > 46000 nM
UACC-257 melanoma
  GI50: 41.3 nM
  TGI: 10700 nM
UACC-62 melanoma
  GI50: 51.2 nM
  TGI: 4370 nM
UO-31 renal
  GI50: 161 nM
  TGI: 7610 nM
